Tests used:
AAK1 [1] = molecular target: T1, AAK1 (Homo sapiens, UniProt Q2M2I8); experiment: HEK281 cell-based assay (CBA); conditions: HEK293F cells transfected with full length human AAK1 and AP2M1; phospho-mu2 Western blot; 3 hours incubation
T1 construct: NP_055726.2
How it was run: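 HEK293F cells co-transfected with full-length human AAK1/HA and Flag-AP2M1 (mu2), then treated in suspension with compounds (5 concentrations, 3-fold steps) in DMEM+0.5% FBS for 3 hours at 37° C. Phospho-mu2 and total mu2 (anti-Flag) assessed by Western blot.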

AAK1 [2] = molecular target: T1, AAK1; experiment: P81 filter plate assay; type: biochemical; conditions: full-length human AAK1, Mu2 substrate, 33P-ATP
How it was run: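 Full-length human AAK1 (0.2 nM, 2×) was pre-incubated 10 min at RT with compounds (top concentration 96 μM in the dilution plate), then reacted 1 h at RT with full-length human Mu2 (0.2 μM, 2×), cold ATP (2 μM, 2×) and ³³P-ATP. Reactions were stopped with phosphoric acid and captured on P81 filters for scintillation counting.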

T1 sequence (Q2M2I8 1-863 isoform Q2M2I8-2): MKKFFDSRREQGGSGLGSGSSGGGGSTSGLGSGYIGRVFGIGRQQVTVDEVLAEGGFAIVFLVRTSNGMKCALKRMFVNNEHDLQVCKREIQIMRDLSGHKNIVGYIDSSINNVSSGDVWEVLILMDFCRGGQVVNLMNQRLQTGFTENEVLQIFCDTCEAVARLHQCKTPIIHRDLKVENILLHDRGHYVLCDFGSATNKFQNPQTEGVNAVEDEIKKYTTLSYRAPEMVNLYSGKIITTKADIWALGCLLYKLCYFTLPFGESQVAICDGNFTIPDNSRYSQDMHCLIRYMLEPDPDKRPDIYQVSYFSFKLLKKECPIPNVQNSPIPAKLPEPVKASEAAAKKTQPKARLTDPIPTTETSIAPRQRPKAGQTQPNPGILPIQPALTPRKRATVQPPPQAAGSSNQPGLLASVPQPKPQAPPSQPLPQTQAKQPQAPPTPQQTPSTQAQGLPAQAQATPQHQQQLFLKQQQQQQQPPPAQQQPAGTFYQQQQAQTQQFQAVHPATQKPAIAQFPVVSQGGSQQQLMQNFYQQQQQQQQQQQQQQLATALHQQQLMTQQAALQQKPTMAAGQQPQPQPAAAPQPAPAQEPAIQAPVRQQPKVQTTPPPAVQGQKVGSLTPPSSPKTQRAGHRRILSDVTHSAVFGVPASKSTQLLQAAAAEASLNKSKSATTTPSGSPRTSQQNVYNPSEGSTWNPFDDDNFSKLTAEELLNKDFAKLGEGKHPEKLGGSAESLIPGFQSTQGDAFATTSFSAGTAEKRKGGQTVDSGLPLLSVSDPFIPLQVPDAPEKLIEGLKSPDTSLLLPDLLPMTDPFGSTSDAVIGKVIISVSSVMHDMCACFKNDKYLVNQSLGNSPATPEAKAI

| Compound | IC50 (AAK1 [1]) | IC50 (AAK1 [2]) | melting point |
| --- | --- | --- | --- |
| CN(CCNc1ccn2ncc(-c3cccs3)c2n1)C(=O)OC(C)(C)C [Example 5.6.4, Methyl-[2-(3-thiophen-2-yl-pyrazolo[1,5-a]pyrimidin-5-ylamino)-ethyl]-carbamic acid tert-butyl ester] |  |  | 140 to 141 °C |
| COc1ncccc1-c1cnn2ccc(NCCCOC(C)(C)C)nc12 [N-(3-(tert-butoxy)propyl)-3-(2-methoxypyridin-3-yl)pyrazolo[1,5-a]pyrimidin-5-amine] | ≤ 100 nM | ≤ 10 nM |  |
| [2H]C([2H])([2H])Oc1ncccc1-c1cnn2ccc(N3CCN(C(=O)OCC)CC3)nc12 [ethyl 4-(3-(2-d3-methoxypyridin-3-yl)pyrazolo[1,5-a]pyrimidin-5-yl)piperazine-1-carboxylate] | ≤ 100 nM | ≤ 10 nM |  |
| CCOC(=O)N1CCN(c2ccn3ncc(-c4cc(C)cnc4OC)c3n2)CC1 [ethyl 4-(3-(2-methoxy-5-methylpyridin-3-yl)pyrazolo[1,5-a]pyrimidin-5-yl)piperazine-1-carboxylate] | ≤ 100 nM | ≤ 10 nM |  |
| CCOC(=O)N1CCN(c2ccn3ncc(-c4ccc(C)nc4OC)c3n2)CC1 [ethyl 4-(3-(2-methoxy-6-methylpyridin-3-yl)pyrazolo[1,5-a]pyrimidin-5-yl)piperazine-1-carboxylate] | ≤ 100 nM | ≤ 10 nM |  |
| CCOC(=O)N1CCN(c2ccn3ncc(-c4cc(F)cnc4OC)c3n2)CC1 [ethyl 4-(3-(5-fluoro-2-methoxypyridin-3-yl)pyrazolo[1,5-a]pyrimidin-5-yl)piperazine-1-carboxylate] | ≤ 100 nM | ≤ 10 nM |  |
| COc1ncc(-c2cnn3ccc(N4CCN(C(=O)OC(C)C)CC4)nc23)c(OC)n1 [isopropyl 4-(3-(2,4-dimethoxypyrimidin-5-yl)pyrazolo[1,5-a]pyrimidin-5-yl)piperazine-1-carboxylate] | ≤ 100 nM | ≤ 10 nM |  |
| COc1cc(C)ccc1-c1cnn2ccc(N3CCN(C(=O)OC(C)C)CC3)nc12 [isopropyl 4-(3-(2-methoxy-4-methylphenyl)pyrazolo[1,5-a]pyrimidin-5-yl)piperazine-1-carboxylate] | ≤ 100 nM | ≤ 10 nM |  |
| CC(C)OC(=O)N1CCN(c2ccn3ncc(-c4ccc(OCCN)cc4)c3n2)CC1 [isopropyl 4-(3-(4-(2-aminoethoxy)phenyl)pyrazolo[1,5-a]pyrimidin-5-yl)piperazine-1-carboxylate] | ≤ 100 nM | ≤ 10 nM |  |
| COc1cccc(-c2cnn3ccc(N4CCN(C(=O)OC(C)C)CC4)nc23)n1 [isopropyl 4-(3-(6-methoxypyridin-2-yl)pyrazolo[1,5-a]pyrimidin-5-yl)piperazine-1-carboxylate] | ≤ 100 nM | ≤ 10 nM |  |
| COc1nc(C)ccc1-c1cnn2ccc(N(C)CCCN(C)C(=O)OC(C)C)nc12 [isopropyl (3-((3-(2-methoxy-6-methylpyridin-3-yl)pyrazolo[1,5-a]pyrimidin-5-yl)(methyl)amino)propyl)(methyl)carbamate] | ≤ 100 nM | ≤ 10 nM |  |
| COc1ncccc1-c1cnn2ccc(N(C)CCCN(C)C(=O)OC(C)C)nc12 [isopropyl (3-((3-(2-methoxypyridin-3-yl)pyrazolo[1,5-a]pyrimidin-5-yl)(methyl)amino)propyl)(methyl)carbamate] | ≤ 100 nM | ≤ 10 nM |  |
| CCCOC(=O)N1CCN(c2ccn3ncc(-c4cccnc4OC)c3n2)CC1 [propyl 4-(3-(2-methoxypyridin-3-yl)pyrazolo[1,5-a]pyrimidin-5-yl)piperazine-1-carboxylate] | ≤ 100 nM | ≤ 10 nM |  |
| CCCOC(=O)N1CCN(c2ccn3ncc(-c4cc(F)cnc4OC)c3n2)CC1 [propyl 4-(3-(5-fluoro-2-methoxypyridin-3-yl)pyrazolo[1,5-a]pyrimidin-5-yl)piperazine-1-carboxylate] | ≤ 100 nM | ≤ 10 nM |  |
| CCOc1ncccc1-c1cnn2ccc(N3CCN(C(=O)OC(C)(C)C)CC3)nc12 [tert-butyl 4-(3-(2-ethoxypyridin-3-yl)pyrazolo[1,5-a]pyrimidin-5-yl)piperazine-1-carboxylate] | ≤ 10 nM | ≤ 10 nM |  |
| COc1nc(C)ccc1-c1cnn2ccc(N3CCN(C(=O)OC(C)(C)C)CC3)nc12 [tert-butyl 4-(3-(2-methoxy-6-methylpyridin-3-yl)pyrazolo[1,5-a]pyrimidin-5-yl)piperazine-1-carboxylate] | ≤ 10 nM | ≤ 10 nM |  |
| COc1ncccc1-c1cnn2ccc(N3CCN(C(=O)OC(C)(C)C)CC3)nc12 [tert-butyl 4-(3-(2-methoxypyridin-3-yl)pyrazolo[1,5-a]pyrimidin-5-yl)piperazine-1-carboxylate] | ≤ 10 nM | ≤ 10 nM |  |
| COc1ccc(F)cc1-c1cnn2ccc(N3CCN(C(=O)OC(C)(C)C)CC3)nc12 [tert-butyl 4-(3-(5-fluoro-2-methoxyphenyl)pyrazolo[1,5-a]pyrimidin-5-yl)piperazine-1-carboxylate] | ≤ 10 nM | ≤ 10 nM |  |
| COc1ncc(F)cc1-c1cnn2ccc(N3CCN(C(=O)OC(C)(C)C)CC3)nc12 [tert-butyl 4-(3-(5-fluoro-2-methoxypyridin-3-yl)pyrazolo[1,5-a]pyrimidin-5-yl)piperazine-1-carboxylate] | ≤ 100 nM | ≤ 10 nM |  |
| COc1ncccc1-c1cnn2ccc(N3CCN(C(=O)OC4CCOCC4)CC3)nc12 [tetrahydro-2H-pyran-4-yl 4-(3-(2-methoxypyridin-3-yl)pyrazolo[1,5-a]pyrimidin-5-yl)piperazine-1-carboxylate] | ≤ 100 nM | ≤ 10 nM |  |

Next, values leading:

| IC50 (AAK1 [1]) | IC50 (AAK1 [2]) | melting point | Compound |
| --- | --- | --- | --- |
| ≤ 10 nM | ≤ 10 nM |  | COc1ccncc1-c1cnn2ccc(NC[C@@H]3CCCN3C(=O)OC(C)(C)C)nc12 [(S)-tert-butyl 2-(((3-(4-methoxypyridin-3-yl)pyrazolo[1,5-a]pyrimidin-5-yl)amino)methyl)pyrrolidine-1-carboxylate] |
| ≤ 10 nM | ≤ 10 nM |  | COc1ncccc1-c1cnn2ccc(N3CCN(C(=O)O[C@H]4CCOC4)CC3)nc12 [(S)-tetrahydrofuran-3-yl 4-(3-(2-methoxypyridin-3-yl)pyrazolo[1,5-a]pyrimidin-5-yl)piperazine-1-carboxylate] |
| ≤ 10 nM | ≤ 10 nM |  | COc1ncc(C)cc1-c1cnn2ccc(N3CCN(C(=O)OC(C)C)CC3)nc12 [isopropyl 4-(3-(2-methoxy-5-methylpyridin-3-yl)pyrazolo[1,5-a]pyrimidin-5-yl)piperazine-1-carboxylate] |
| ≤ 10 nM | ≤ 10 nM |  | [2H]C1([2H])N(C(=O)OC(C)C)C([2H])([2H])C([2H])([2H])N(c2ccn3ncc(-c4ccc(C)nc4OC)c3n2)C1([2H])[2H] [isopropyl 4-(3-(2-methoxy-6-methylpyridin-3-yl)pyrazolo[1,5-a]pyrimidin-5-yl)-d8-piperazine-1-carboxylate] |
| ≤ 10 nM | ≤ 10 nM |  | CC(C)OC(=O)N1CCN(c2ccn3ncc(-c4ccc(CN)cc4)c3n2)CC1 [isopropyl 4-(3-(4-(aminomethyl)phenyl)pyrazolo[1,5-a]pyrimidin-5-yl)piperazine-1-carboxylate] |
| ≤ 10 nM | ≤ 10 nM |  | COc1cc(C)c(F)cc1-c1cnn2ccc(N3CCN(C(=O)OC(C)C)CC3)nc12 [isopropyl 4-(3-(5-fluoro-2-methoxy-4-methylphenyl)pyrazolo[1,5-a]pyrimidin-5-yl)piperazine-1-carboxylate] |
| ≤ 10 nM | ≤ 10 nM |  | COc1ccc(F)cc1-c1cnn2ccc(N3CCN(C(=O)OC(C)C)CC3)nc12 [isopropyl 4-(3-(5-fluoro-2-methoxyphenyl)pyrazolo[1,5-a]pyrimidin-5-yl)piperazine-1-carboxylate] |
| ≤ 10 nM | ≤ 10 nM |  | COc1ncccc1-c1cnn2ccc(N3CCN(C(=O)OC4COC4)CC3)nc12 [oxetan-3-yl 4-(3-(2-methoxypyridin-3-yl)pyrazolo[1,5-a]pyrimidin-5-yl)piperazine-1-carboxylate] |
| ≤ 10 nM | ≤ 10 nM |  | CCCOC(=O)N1CCN(c2ccn3ncc(-c4ccc(C)nc4OC)c3n2)CC1 [propyl 4-(3-(2-methoxy-6-methylpyridin-3-yl)pyrazolo[1,5-a]pyrimidin-5-yl)piperazine-1-carboxylate] |
| ≤ 10 nM | ≤ 10 nM |  | [2H]C([2H])([2H])Oc1ncccc1-c1cnn2ccc(N3CCN(C(=O)OC(C)(C)C)CC3)nc12 [tert-butyl 4-(3-(2-d3-methoxypyridin-3-yl)pyrazolo[1,5-a]pyrimidin-5-yl)piperazine-1-carboxylate] |

— patent US9403832B2, “Pyrazolo[1,5-a]pyrimidine-based compounds, compositions comprising them, and methods of their use” (Lexicon Pharmaceuticals, Inc., priority 2012, dated 2016)
